In ChEMBL document CHEMBL4739717, “Methods of treating cartilage disorders through inhibition of clk and dyrk” (2020):

Key:
[1] = target: Dual specificity tyrosine-phosphorylation-regulated kinase 1A (Homo sapiens, UniProt Q13627); experiment: Inhibition of recombinant DYRK1A (unknown origin) using Ser/Thr 18 peptide as substrate incubated for 1 hr in presence of ATP by FRET assay
[2] = Effect on Wnt signaling pathway in human SW480 cells harbouring TCF/LEF luciferase reporter gene and SP5-Luc reporter gene incubated for 36 to 48 hrs by luminescence assay; assay type: cell-based
[3] = Inhibition of IL1-beta induced MMP3 expression levels in human chondrocytes assessed as MMP3 levels incubated for 2hrs followed by IL1-beta stimulation and measured after overnight incubation by LANCE assay; assay type: functional, cell-based; settings: Chondrocyte
[4] = Induction of chondrogenesis in human MSC assessed as incubated for 6 days by rhodamine B and Nile red staining based imaging analysis; assay type: functional; settings: bmmsc

| EC50 [1] [nM] | EC50 [2] [nM] | EC50 [3] [nM] | EC50 [4] [nM] | SMILES |
| --- | --- | --- | --- | --- |
| 7 | 101 | – | – | O=C(Nc1ccc(-c2ccccc2)nc1)c1n[nH]c2ccc(-c3cncc(CN4CCCCC4)c3)cc12 |
| 2 | 330 | – | – | CN(C)Cc1cncc(NC(=O)c2n[nH]c3ccc(-c4cncc(CN5CCCC5)c4)cc23)c1 |
| – | – | 697 | – | CN(C)C1CCN(c2cc(C(=O)Nc3cc4cc(-c5cnn(C)c5)ccc4cn3)ccn2)CC1 |
| – | 262 | 3000 | – | Cc1n[nH]c2ccc(-c3cncc(OC[C@@H](N)Cc4ccccc4)c3)cc12 |
| 1 | 106 | – | – | O=C(Nc1ccnnc1)c1n[nH]c2ccc(-c3cccnc3)cc12 |
| – | – | 3000 | – | Cn1cc(-c2ccc3cnc(NC(=O)c4ccc5cnccc5c4)cc3c2)cn1 |
| 2 | 1250 | – | – | O=C(Nc1cccnc1)c1n[nH]c2ccc(-c3cncc(NC(=O)N4CCOCC4)c3)cc12 |
| – | 357 | 3000 | – | CN1CC=C(c2cc(C(=O)Nc3cc4cc(-c5cncc(NC(C)(C)C)n5)cnc4cn3)ccn2)CC1 |
| – | – | 3000 | – | Cc1cc(C(=O)Nc2cc3cc(-c4cnn(C)c4)ccc3cn2)cc(N2CCN(C)CC2)n1 |
| – | 1960 | 2.3 | – | NC(=O)c1n[nH]c2ccc(-c3cncc(CN4CCCCC4)c3)cc12 |
| 1 | 40 | – | – | O=C(Nc1ccnnc1)c1n[nH]c2ccc(-c3cncc(CN4CCCCC4)c3)cc12 |
| – | 383 | – | – | O=C(Nc1cc2cc(-c3cncc(NCC4(F)CNC4)n3)ncc2cn1)C1CC1 |
| 1 | 289 | – | – | O=C(Nc1cnccn1)c1n[nH]c2ccc(-c3cncc(CN4CCCCC4)c3)cc12 |
| – | 132 | 3000 | – | CC(C)Nc1cncc(-c2ccc3cnc(NC(=O)c4cccc(C5CCN(C)CC5)c4)cc3c2)n1 |
| – | 607 | 3000 | – | CN1CCC2(CC1)CN(c1cc(C(=O)Nc3cc4cc(-c5cnn(C)c5CN5CCCCC5)cnc4cn3)ccn1)C2 |
| – | 319 | 3000 | – | O=C(Nc1cc2cc(-c3cncc(NC4CCNCC4)n3)ccc2cn1)C1CCCCC1 |
| – | – | 3000 | – | CN1CCC2(CC1)CN(c1cc(C(=O)Nc3cc4cc(-c5cnn(C)c5CO)ccc4cn3)ccn1)C2 |
| 6 | 68 | – | – | O=C(Nc1cnccc1NC(=O)C1CC1)c1n[nH]c2ccc(-c3cccnc3)cc12 |
| – | 1640 | 3000 | – | Cc1n[nH]c2ccc(-c3cncc(OCCN)c3)cc12 |
| 3 | > 10000 | – | – | Nc1cncc(-c2cnc3[nH]nc(-c4cc5c(-c6ccncc6)cncc5[nH]4)c3c2)c1 |
| – | 3640 | 46.6 | – | O=C(Nc1cc2cc(-c3cncc(NC4CCNCC4)n3)ncc2cn1)C1CCOCC1 |
| – | 1400 | 3000 | – | CN1CCC(n2cc(C(=O)Nc3ncc4ccc(-c5cncc6[nH]ccc56)cc4n3)cn2)CC1 |
| 97 | 3990 | – | – | CS(=O)(=O)NCc1cc(F)cc(-c2nccc3[nH]c(-c4n[nH]c5ncc(-c6cncc(OCc7ccccc7)c6)cc45)cc23)c1 |
| 16 | 3640 | – | 300 | CS(=O)(=O)NCc1cc(F)cc(-c2nccc3[nH]c(-c4n[nH]c5ncc(-c6cncc(NC(=O)C7CCC7)c6)cc45)cc23)c1 |
| – | 14 | – | – | CN1CCC(n2cc(C(=O)Nc3cc4cc(-c5cnn(C)c5)ccc4cn3)cn2)CC1 |

| EC50 [1] [nM] | EC50 [2] [nM] | EC50 [3] [nM] | EC50 [4] [nM] | SMILES |
| --- | --- | --- | --- | --- |
| – | – | 3000 | – | CN1CCc2cc(C(=O)Nc3cc4cc(-c5cn(C)nn5)ccc4cn3)ccc2C1 |
| 56 | 4640 | – | – | Fc1cccc(-c2cncc3[nH]c(-c4n[nH]cc4C#Cc4cncc(OC5CCNCC5)c4)nc23)c1 |
| – | 710 | 798 | – | CN1CCN(c2cc(C(=O)Nc3cc4cc(-c5ccc(N)nc5)ccc4cn3)ccn2)CC1 |
| 16 | 2510 | – | – | CC(C)CC(=O)Nc1cncc(-c2cnc3[nH]nc(-c4cc5c(-c6cc(F)cc(CNS(C)(=O)=O)c6)cncc5[nH]4)c3c2)c1 |
| – | 1090 | – | – | Cc1cc2[nH]nc(C(=O)Nc3ccc(CN4CCCC4)cc3)c2cc1-c1cccnc1 |
| 3 | 1040 | – | 10 | CCNCc1cncc(-c2ccc3[nH]nc(-c4cc5cnccc5[nH]4)c3c2)c1 |
| – | – | 0.4 | – | CN1CCN(c2cc(C(=O)Nc3cc4cc(-c5cnc(N)s5)ccc4cn3)ccn2)CC1 |
| – | 824 | 154 | – | CC(C)OC(=O)N1CCC(n2cc(C(=O)Nc3cc4cc(-c5cnn(C)c5)ncc4cn3)cn2)CC1 |
| 7 | 73.3 | – | – | CNc1nc(NCc2ncccn2)c2c(-c3ccc4ncccc4c3)c[nH]c2n1 |
| – | – | 11.5 | – | CN1CCN(c2cc(C(=O)Nc3cc4cc(-c5cnn(C)c5N)ccc4cn3)ccn2)CC1 |
| – | 26.8 | 3000 | – | CN1CCC(n2cc(C(=O)Nc3cc4cc(-c5cnc6cc[nH]c6c5)ccc4cn3)cn2)CC1 |
| 1 | 95 | – | – | Cc1n[nH]c2ccc(-c3cncc(N[C@H]4CC[C@H](O)CC4)n3)cc12 |
| 3 | 125 | – | – | O=C(Nc1ccc2c(c1)OCCO2)c1n[nH]c2ccc(-c3cncc(CN4CCCCC4)c3)cc12 |
| 1 | 80 | – | – | CN1CCN(c2ccc(NC(=O)c3n[nH]c4ccc(-c5cncc(NC(=O)C6CC6)c5)cc34)cn2)CC1 |
| – | 381 | – | – | O=C(Nc1cc2cc(-c3cncc(NC4CCNCC4)n3)ccc2cn1)C1CC(F)(F)C1 |
| – | – | 3000 | – | CN1Cc2ccc(C(=O)Nc3cc4cc(-c5cncn5C)ccc4cn3)cc2C1 |
| 1 | 37 | – | – | CN1CCN(Cc2ccc(NC(=O)c3n[nH]c4ccc(-c5cccnc5)cc34)cn2)CC1 |
| 1 | 176 | – | – | CN(C)C(=O)Nc1cncc(-c2ccc3[nH]nc(C(=O)Nc4cccnc4)c3c2)c1 |
| 5 | 253 | – | – | CN(C)CCOc1cncc(-c2cnc3[nH]nc(-c4nc5c(-c6cccc(F)c6)nccc5[nH]4)c3c2)c1 |
| – | – | 3000 | – | NC1CN(c2cc(C(=O)Nc3cc4cc(-c5cnco5)ccc4cn3)ccn2)C1 |
| 19 | 421 | – | – | O=C(Nc1cncc(-c2ccc3[nH]nc(-c4cc5c(-c6cccnc6)nccc5[nH]4)c3c2)c1)c1ccccc1 |
| – | – | 9.5 | – | CN1CCN(c2ccc(C(=O)Nc3cc4cc(-c5cnn(C)c5)ccc4cn3)cn2)CC1 |
| – | – | 47.4 | – | CN(C)Cc1ccc(C(=O)Nc2cc3cc(-c4cnn(C)c4)ccc3cn2)cc1 |
| 55 | 4 | – | 100 | CC(C)(C)C(=O)Nc1cncc(-c2ccc3[nH]nc(-c4nc5c(-c6ccc(F)cc6)cncc5[nH]4)c3c2)c1 |
| – | – | 3000 | – | CN1CCCN(c2cc(C(=O)Nc3cc4cc(-c5cnn(C)c5)ccc4cn3)ccn2)CC1 |

| EC50 [1] [nM] | EC50 [2] [nM] | EC50 [3] [nM] | EC50 [4] [nM] | SMILES |
| --- | --- | --- | --- | --- |
| 5 | 268 | – | – | CC(C)CC(=O)Nc1cncc(-c2ccc3[nH]nc(-c4nc5c(N6CCN(C)CC6)cccc5[nH]4)c3c2)c1 |
| 1 | 65 | – | – | CN(C)CCN(C)c1ccc(NC(=O)c2n[nH]c3ccc(-c4cncc(CN5CCCCC5)c4)cc23)cn1 |
| – | 115 | 4.6 | – | CC(C)n1cc(C(=O)Nc2cc3cc(-c4cncn4C(C)C)ccc3cn2)cn1 |
| 30 | > 10000 | – | 300 | CCNCc1cncc(-c2cnc3[nH]nc(-c4cc5c(-c6cc(F)cc(CNS(C)(=O)=O)c6)nccc5[nH]4)c3c2)c1 |
| – | – | 12.2 | – | CN1CCN(c2cc(C(=O)Nc3cc4cc(-c5cnn(C6CC6)c5)ccc4cn3)ccn2)CC1 |
| – | 1820 | 3000 | – | O=C(NCc1cc(F)cc(F)c1)c1n[nH]c2ccc(-c3cncc(CN4CCCCC4)c3)cc12 |
| 19 | 1510 | – | 300 | CC(C)CC(=O)Nc1cncc(-c2cnc3[nH]nc(-c4cc5c(-c6cc(F)cc(CNS(C)(=O)=O)c6)nccc5[nH]4)c3c2)c1 |
| – | – | 306 | – | CN(C)CCNc1cc(C(=O)Nc2cc3cc(-c4cnn(C)c4)ccc3cn2)ccn1 |
| – | – | 3000 | – | CN1CCC2(CC1)CN(c1cc(C(=O)Nc3cc4cc(-c5cnn(C)c5)ccc4cn3)ccn1)C2 |
| – | – | 898 | – | CN1CCN(c2cc(C(=O)Nc3cc4c(Cl)c(-c5cnn(C)c5)ccc4cn3)ccn2)CC1 |
| – | – | 1370 | – | Cn1ncc(-c2ccc3cnc(NC(=O)c4ccc(OC(F)F)cc4)cc3c2)c1CO |
| – | 119 | 897 | – | O=C(Nc1cc2cc(-c3cncc(NCC4(F)CNC4)n3)ccc2cn1)C1CC1 |
| 83 | 32 | – | 300 | CN(C)Cc1cncc(-c2cnc3[nH]nc(-c4nc5c(-c6ccsc6)cccc5[nH]4)c3c2)c1 |
| – | 468 | 417 | – | CN1CCN(c2cc(C(=O)Nc3ncc4ccc(-c5cnn(C)c5)cc4n3)ccn2)CC1 |
| 4 | 335 | – | – | Cc1ncc(NC(=O)c2n[nH]c3ccc(-c4cnc(C)n4C)cc23)s1 |
| – | – | 0.4 | – | CN1CCN(c2cc(C(=O)Nc3cc4cc(-c5cnn(C)c5)c(F)cc4cn3)ccn2)CC1 |
| 26 | 31.3 | – | 300 | COc1cncc(-c2cc3c(-c4nc5c(-c6cccc(F)c6)cncc5[nH]4)n[nH]c3cn2)c1 |
| – | – | 3000 | – | O=C(Nc1cc2cc(-c3cncs3)ccc2cn1)c1ccc2c(c1)CNCC2 |
| 53 | 18.8 | – | 10 | CCCC(=O)Nc1cncc(-c2cc3c(-c4nc5c(-c6cccc(F)c6)nccc5[nH]4)n[nH]c3cn2)c1 |
| 1 | 49 | – | – | O=C(Nc1ccc(N2CCC(O)CC2)nc1)c1n[nH]c2ccc(-c3cncc(CN4CCCCC4)c3)cc12 |
| – | – | 1630 | – | Cn1cc(-c2ccc3cnc(NC(=O)c4ccc5c(c4)CNCC5)cc3c2)cn1 |
| – | – | 10.5 | – | Cc1ncc(-c2ccc3cnc(NC(=O)c4ccc(OC(C)C)cc4)cc3c2)n1C |
| 99 | > 10000 | – | – | CC(C)CC(=O)Nc1cncc(-c2cc3c(-c4cc5c(-c6cc(F)cc(CNS(C)(=O)=O)c6)cncc5[nH]4)n[nH]c3cn2)c1 |
| – | – | 3000 | – | Cn1cncc1-c1ccc2cnc(NC(=O)c3ccnc(N4CCN(C5CC5)CC4)c3)cc2c1 |

| SMILES | EC50 [1] [nM] | EC50 [2] [nM] | EC50 [3] [nM] | EC50 [4] [nM] |
| --- | --- | --- | --- | --- |
| CN1CCN(c2ccc(C(=O)Nc3cc4cc(-c5cnn6c5CN(CCF)CC6)ccc4cn3)cn2)CC1 | – | – | 3000 | – |
| CC(C)Nc1cncc(-c2ccc3cnc(NC(=O)C4CCN(CCF)CC4)cc3c2)n1 | – | 178 | – | – |
